Results: patent publication US20100298141A1, “SUBSTITUTED PYRIDINE N-OXIDE HERBICIDES” (E. I. DU PONT DE NEMOURS AND COMPANY, priority 2007, published 2010)

What was measured:
downy brome = test: Test C pre-/postemergence test; format: in vivo, Bromus tectorum
Outline: (§1)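 Compounds in a non-phytotoxic solvent with surfactant applied preemergence to seeded pots and, at the same time, postemergence to plants 2–18 cm tall (1- to 4-leaf stage). Paddy tests: pots flooded to 3 cm, compound applied into the water, depth held throughout.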

corn = test: Test C pre-/postemergence test; format: in vivo, Zea mays
Outline: as §1

umbrella sedge = test: Test C flooded paddy test; format: in vivo, Cyperus difformis; settings: Flood, 250 g ai/ha; scale 0 to 100, 0 no effect, 100 complete control; 13 to 15 days
Outline: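 Ratings were visual and made relative to untreated controls after 13 to 15 greenhouse days.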

cocklebur = test: Test C pre-/postemergence test; format: in vivo, Xanthium strumarium
Outline: as §1

yellow nutsedge = test: Test C pre-/postemergence test; format: in vivo, Cyperus esculentus
Outline: as §1

lambsquarters = test: Test C pre-/postemergence test; format: in vivo, Chenopodium album
Outline: as §1

giant foxtail [1] = test: Test C pre-/postemergence test; format: in vivo, Setaria faberii
Outline: as §1

johnsongrass = test: Test C pre-/postemergence test; format: in vivo, Sorghum halepense
Outline: as §1

morningglory [2] = test: Test A pre-/postemergence greenhouse test; format: in vivo, Ipomoea spp.; settings: for Plant response rating, Morningglory: 0 to 100 scale where 0 is no effect and 100 is complete control; for Morningglory plant response rating: 0 to 100 scale
Outline: (§2)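 Sowing in loam/sand; same-day pre (directed soil spray) and post (foliar, 1–2 leaf, 2–10 cm) treatment with surfactant-containing non-phytotoxic solvent formulation; ~10 days in greenhouse; eye-scored injury against untreated plants.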

common ragweed = test: Test C pre-/postemergence test; format: in vivo, Ambrosia elation
Outline: as §1

crabgrass = test: Test A pre-/postemergence greenhouse test; format: in vivo, Digitaria sanguinalis; settings: for Plant response rating, Crabgrass, Large: 0 to 100 scale where 0 is no effect and 100 is complete control; for Crabgrass, Large plant response rating: 0 to 100 scale
Outline: as §2

giant foxtail [3] = test: Test A pre-/postemergence greenhouse test; format: in vivo, Setaria faberi; settings: for Plant response rating, Foxtail, Giant: 0 to 100 scale where 0 is no effect and 100 is complete control; for Foxtail, Giant plant response rating: 0 to 100 scale
Outline: as §2

woolly cupgrass = test: Test C pre-/postemergence test; format: in vivo, Eriochloa villosa
Outline: as §1

morningglory [4] = test: Test C pre-/postemergence test; format: in vivo, Ipomoea coccinea
Outline: as §1

Goosegrass = test: Test C pre-/postemergence test; format: in vivo, Eleusin indica
Outline: as §1

wheat = test: Test A pre-/postemergence greenhouse test; format: in vivo, Triticum aestivum; settings: for Plant response rating, Wheat: 0 to 100 scale where 0 is no effect and 100 is complete control; for Wheat plant response rating: 0 to 100 scale
Outline: as §2

soybean = test: Test C pre-/postemergence test; format: in vivo, Glycine max
Outline: as §1

[5] = 62 g ai/ha, Preemergence, scale 0 to 100
[6] = 125 g ai/ha, preemergence, scale 0 (no effect) to 100 (complete control)
[7] = Preemergence, 31 g ai/ha, scale 0 to 100 (0 no effect, 100 complete control)
[8] = preemergence, 250 g ai/ha, scale 0 (no effect) to 100 (complete control)
[9] = Postemergence, 500 g ai/ha, 0 is no effect, 100 is complete control
[10] = Preemergence, 125 g ai/ha, 0 no effect, 100 complete control

## Cn1nc(C(F)(F)F)c(C(Cl)S(=O)(=O)c2cccc[n+]2[O-])c1OC(F)F (centres unmarked) [Compound 51]
Downy brome; [5]
  Bromegrass, Downy plant response rating: 0
Downy brome; [6]
  Bromegrass, Downy plant response rating: 0
Downy brome; [7]
  Plant response rating, Bromegrass, Downy: 0
Downy brome; [8]
  Bromegrass, Downy plant response rating: 0
corn; [5]
  Corn plant response rating: 0
corn; [6]
  Corn plant response rating: 50
corn; [7]
  Plant response rating, Corn: 0
corn; [8]
  Corn plant response rating: 50
Umbrella sedge
  Plant response rating, Sedge, Umbrella: 95
cocklebur; [5]
  Cocklebur plant response rating: 0
cocklebur; [6]
  Cocklebur plant response rating: 0
cocklebur; [7]
  Plant response rating, Cocklebur: 0
cocklebur; [8]
  Cocklebur plant response rating: 0
Yellow nutsedge; [5]
  Nutsedge, Yellow plant response rating: 40
Yellow nutsedge; [6]
  Nutsedge, Yellow plant response rating: 40
Yellow nutsedge; [7]
  Plant response rating, Nutsedge, Yellow: 0
Yellow nutsedge; [8]
  Nutsedge, Yellow plant response rating: 100
lambsquarters; [5]
  Lambsquarters plant response rating: 100
lambsquarters; [6]
  Lambsquarters plant response rating: 100
lambsquarters; [7]
  Plant response rating, Lambsquarters: 100
lambsquarters; [8]
  Lambsquarters plant response rating: 100
Giant foxtail [1]; [5]
  Foxtail, Giant plant response rating: 50
Giant foxtail [1]; [6]
  Foxtail, Giant plant response rating: 90
Giant foxtail [1]; [7]
  Plant response rating, Foxtail, Giant: 10
Giant foxtail [1]; [8]
  Foxtail, Giant plant response rating: 100
johnsongrass; [5]
  Johnsongrass plant response rating: 95
johnsongrass; [6]
  Johnsongrass plant response rating: 98
johnsongrass; [7]
  Plant response rating, Johnsongrass: 75
johnsongrass; [8]
  Johnsongrass plant response rating: 100
Morningglory [2]; Postemergence, 125 g ai/ha
  Plant response rating, Morningglory: 60
Morningglory [2]; [9]
  Morningglory plant response rating: 60
Morningglory [2]; [10]
  Morningglory plant response rating: 50
Morningglory [2]; Preemergence, 500 g ai/ha
  Plant response rating, Morningglory: 70
Common ragweed; [5]
  Ragweed plant response rating: 0
Common ragweed; [6]
  Ragweed plant response rating: 30
Common ragweed; [7]
  Plant response rating, Ragweed: 0
Common ragweed; [8]
  Ragweed plant response rating: 85
crabgrass; Postemergence, 125 g ai/ha
  Plant response rating, Crabgrass, Large: 60
crabgrass; [9]
  Crabgrass, Large plant response rating: 90
crabgrass; [10]
  Crabgrass, Large plant response rating: 70
crabgrass; Preemergence, 500 g ai/ha
  Plant response rating, Crabgrass, Large: 90
Giant foxtail [3]; Postemergence, 125 g ai/ha
  Plant response rating, Foxtail, Giant: 50
Giant foxtail [3]; [9]
  Foxtail, Giant plant response rating: 90
Giant foxtail [3]; [10]
  Foxtail, Giant plant response rating: 100
Giant foxtail [3]; Preemergence, 500 g ai/ha
  Plant response rating, Foxtail, Giant: 100
Woolly cupgrass; [5]
  Cupgrass, Woolly plant response rating: 70
Woolly cupgrass; [6]
  Cupgrass, Woolly plant response rating: 90
Woolly cupgrass; [7]
  Plant response rating, Cupgrass, Woolly: 0
Woolly cupgrass; [8]
  Cupgrass, Woolly plant response rating: 100
Morningglory [4]; [5]
  Morningglory plant response rating: 100
Morningglory [4]; [6]
  Morningglory plant response rating: 100
Morningglory [4]; [7]
  Plant response rating, Morningglory: 100
Morningglory [4]; [8]
  Morningglory plant response rating: 100
Goosegrass; [5]
  Goosegrass plant response rating: 100
Goosegrass; [6]
  Goosegrass plant response rating: 100
Goosegrass; [7]
  Plant response rating, Goosegrass: 100
Goosegrass; [8]
  Goosegrass plant response rating: 100
wheat; Postemergence, 125 g ai/ha
  Plant response rating, Wheat: 40
wheat; [9]
  Wheat plant response rating: 60
wheat; [10]
  Wheat plant response rating: 30
wheat; Preemergence, 500 g ai/ha
  Plant response rating, Wheat: 50
soybean; [5]
  Soybean plant response rating: 0
soybean; [6]
  Soybean plant response rating: 0
soybean; [7]
  Plant response rating, Soybean: 0
soybean; [8]
  Soybean plant response rating: 0
